This is an account of results in paper PMC7645423, “Chemical composition and biological effects of kratom (Mitragyna speciosa): In vitro studies with implications for efficacy and drug interactions” (Scientific Reports, 2020).

Entries after “also recorded” stand apart in the source; their conditions may differ.

Series [1] concerns the target CYP3A (Homo sapiens, UniProt P08684). Kind of series: CYP inhibition in human liver microsomes, midazolam 1′-hydroxylation. The note with it: for Inhibition of CYP3A activity (in words): human liver microsomes, extracts 2, 10, 20 µg/mL, alkaloids 1, 10, 100 µM. In general terms: Liver microsomes are vesicles of endoplasmic reticulum, rich in cytochrome P450 enzymes.
Series [2] relates to human µ-opioid receptor (hMOR). The note with it: cited from earlier work.
For series [3], the target named is T1, human κ-opioid receptor (Homo sapiens, UniProt P41145).
T1 construct: expressed in transfected cells
T1 sequence (P41145 whole entry): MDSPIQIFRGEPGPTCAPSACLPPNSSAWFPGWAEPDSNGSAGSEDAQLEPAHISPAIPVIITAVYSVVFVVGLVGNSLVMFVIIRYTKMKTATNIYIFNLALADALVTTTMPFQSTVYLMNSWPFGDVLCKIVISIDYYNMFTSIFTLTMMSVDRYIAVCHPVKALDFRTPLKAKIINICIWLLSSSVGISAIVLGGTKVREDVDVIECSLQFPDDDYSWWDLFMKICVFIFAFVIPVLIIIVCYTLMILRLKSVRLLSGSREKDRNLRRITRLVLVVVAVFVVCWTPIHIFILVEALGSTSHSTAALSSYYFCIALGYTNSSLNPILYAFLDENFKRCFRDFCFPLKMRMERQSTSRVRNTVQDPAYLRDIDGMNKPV
The series is described as follows: biochemical. In kind it is binding.

For series [4], the target named is CYP2D6 (Homo sapiens, UniProt P10635). Kind of series: CYP inhibition in human liver microsomes, dextromethorphan O-demethylation. The following applies: for Inhibition of CYP2D6 activity (in words): human liver microsomes, extracts 2, 10, 20 µg/mL, alkaloids 1, 10, 100 µM.
Sequence of CYP2D6 (P10635 whole entry): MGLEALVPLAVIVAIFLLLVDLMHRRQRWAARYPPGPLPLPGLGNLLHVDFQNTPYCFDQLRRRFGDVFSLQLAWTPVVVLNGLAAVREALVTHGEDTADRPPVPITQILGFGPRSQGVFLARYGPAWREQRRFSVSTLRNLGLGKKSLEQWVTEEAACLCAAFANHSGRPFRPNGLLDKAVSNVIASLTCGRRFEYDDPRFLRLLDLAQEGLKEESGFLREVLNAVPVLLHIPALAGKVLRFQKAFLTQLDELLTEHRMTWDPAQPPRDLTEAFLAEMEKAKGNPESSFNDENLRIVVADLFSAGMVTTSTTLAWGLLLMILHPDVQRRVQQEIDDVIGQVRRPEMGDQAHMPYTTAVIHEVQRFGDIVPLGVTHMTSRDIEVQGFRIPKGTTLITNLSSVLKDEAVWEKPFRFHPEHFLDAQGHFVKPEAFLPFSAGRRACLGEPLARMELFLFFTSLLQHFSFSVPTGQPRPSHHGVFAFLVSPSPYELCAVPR
The target in series [5] is hMOR (Homo sapiens, UniProt P35372). The series is described as follows: cell-based. The following applies: for Emax: CHO-K1, read-out: cAMP accumulation Emax %. It counts as cell-based. For orientation: cAMP levels reflect the balance of adenylyl cyclase and phosphodiesterase activity.
Sequence of hMOR (P35372 whole entry): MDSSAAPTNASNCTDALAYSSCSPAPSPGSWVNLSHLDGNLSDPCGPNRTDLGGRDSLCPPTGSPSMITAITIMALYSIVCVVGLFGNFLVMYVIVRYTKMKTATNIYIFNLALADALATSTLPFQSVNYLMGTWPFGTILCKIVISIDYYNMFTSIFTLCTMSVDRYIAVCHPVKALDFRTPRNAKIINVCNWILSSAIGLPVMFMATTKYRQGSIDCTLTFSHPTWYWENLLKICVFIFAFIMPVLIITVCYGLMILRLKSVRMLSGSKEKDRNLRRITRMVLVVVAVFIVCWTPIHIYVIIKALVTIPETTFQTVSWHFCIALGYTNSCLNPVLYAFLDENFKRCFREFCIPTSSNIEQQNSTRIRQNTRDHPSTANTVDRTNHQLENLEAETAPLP
Series [6] has as its target CYP2C9 (Homo sapiens, UniProt P11712). Kind of series: CYP inhibition in human liver microsomes, diclofenac 4′-hydroxylation. The following applies: for Inhibition of CYP2C9 activity (in words): human liver microsomes, extracts 2, 10, 20 µg/mL, alkaloids 1, 10, 100 µM.
Series [7] concerns the target T2, µ-opioid receptor (Homo sapiens, UniProt P35372). It counts as cell-based.
The target in series [8] is T2, µ-opioid receptor. Kind of series: biochemical. In kind it is binding. More on the design: expressed in transfected cells.
In series [9] the target is T3, human δ-opioid receptor (Homo sapiens, UniProt P41143).
T3 construct: expressed in transfected cells
T3 sequence (P41143 whole entry): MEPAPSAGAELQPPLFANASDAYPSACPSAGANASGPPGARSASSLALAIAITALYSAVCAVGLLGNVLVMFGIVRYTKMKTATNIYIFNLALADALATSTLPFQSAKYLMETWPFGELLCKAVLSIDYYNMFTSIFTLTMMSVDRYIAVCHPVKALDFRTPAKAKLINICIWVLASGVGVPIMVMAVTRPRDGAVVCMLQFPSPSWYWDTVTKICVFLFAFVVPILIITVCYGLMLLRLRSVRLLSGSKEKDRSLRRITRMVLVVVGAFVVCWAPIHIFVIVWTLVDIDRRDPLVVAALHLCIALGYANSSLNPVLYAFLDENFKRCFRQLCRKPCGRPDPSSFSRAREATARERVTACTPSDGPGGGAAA
Kind of series: Competitive radioligand binding, δ-opioid receptor. The note with it: for Affinity at δ-opioid receptor (in words): competitive radioligand binding, HEK293; for Ki: competitive binding against 3H-deltorphin, HEK293 cell membranes, minimum of three replicates, read-out: Receptor binding affinity (Ki ± SEM, nM) δ-opioid.

Sequence of CYP3A (P08684 2-503): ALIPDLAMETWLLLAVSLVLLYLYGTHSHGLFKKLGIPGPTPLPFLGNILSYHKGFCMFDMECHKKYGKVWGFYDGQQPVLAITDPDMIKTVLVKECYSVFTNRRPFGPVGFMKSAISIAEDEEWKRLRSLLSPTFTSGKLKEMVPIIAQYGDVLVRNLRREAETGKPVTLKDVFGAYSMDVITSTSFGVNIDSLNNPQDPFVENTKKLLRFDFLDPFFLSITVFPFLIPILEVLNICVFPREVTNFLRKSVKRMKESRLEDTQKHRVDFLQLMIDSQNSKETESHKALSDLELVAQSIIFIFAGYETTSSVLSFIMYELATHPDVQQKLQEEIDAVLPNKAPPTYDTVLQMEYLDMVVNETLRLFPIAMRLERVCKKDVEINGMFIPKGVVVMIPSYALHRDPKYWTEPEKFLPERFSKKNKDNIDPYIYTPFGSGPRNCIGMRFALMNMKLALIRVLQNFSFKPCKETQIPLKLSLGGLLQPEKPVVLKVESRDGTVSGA
T2 sequence (P35372 whole entry): as the sequence (P35372 whole entry) above
Sequence of CYP2C9 (P11712 whole entry): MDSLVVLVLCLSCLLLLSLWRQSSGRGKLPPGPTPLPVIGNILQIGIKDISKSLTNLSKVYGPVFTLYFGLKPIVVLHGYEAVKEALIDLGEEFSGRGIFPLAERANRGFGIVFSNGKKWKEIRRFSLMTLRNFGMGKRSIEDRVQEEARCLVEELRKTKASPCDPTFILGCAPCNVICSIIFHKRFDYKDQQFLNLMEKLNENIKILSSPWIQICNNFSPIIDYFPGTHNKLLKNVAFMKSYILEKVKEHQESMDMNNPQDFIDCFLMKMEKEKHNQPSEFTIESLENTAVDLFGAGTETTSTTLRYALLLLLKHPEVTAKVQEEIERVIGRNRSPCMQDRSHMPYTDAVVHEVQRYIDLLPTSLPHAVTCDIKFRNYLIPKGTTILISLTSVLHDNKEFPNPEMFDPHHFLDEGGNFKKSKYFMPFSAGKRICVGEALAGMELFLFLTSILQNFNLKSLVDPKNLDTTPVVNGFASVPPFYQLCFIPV

For the compound `CC[C@@H]1CN2CC[C@@]3(O)C(=Nc4cccc(OC)c43)[C@@H]2C[C@@H]1/C(=C\OC)C(=O)OC` [7-Hydroxymitragynine, 7-hydroxymitragynine], the “Inhibition of CYP3A activity (in words)” value in [1] is “weak inhibitor; also recorded: concentration-dependent inhibition”. Further, the “Affinity at the μ-opioid receptor compared to mitragynine” value in series [2] is recorded as “approximately fivefold greater affinity”. Moreover, the “Affinity at ƙ-opioid receptor (in words)” value in series [3] is “moderate affinity”. In addition, the “Inhibition of CYP2D6 activity (in words)” value in series [4] is “moderate inhibitor; also recorded: concentration-dependent inhibition”. Moreover, the “Inhibition of forskolin-stimulated cAMP accumulation (in words)” value in series [5] is given as “partially inhibit cAMP accumulation”. For the same compound, the “Inhibition of CYP2C9 activity (in words)” value in [6] is listed as “weak inhibitor; also recorded: concentration-dependent inhibition”. For the same compound, in series [7], the “β-arrestin-2 recruitment (in words)” value is listed as “fail to recruit β-arrestin-2”. Also, the “Affinity at µ-opioid receptor (in words)” value in series [8] was “strong affinity”. For the same compound, the “Affinity at δ-opioid receptor (in words)” value in series [9] is “moderate affinity”.
As for `C[C@@H](NC(=O)[C@@H](N)Cc1ccc(O)cc1)C(=O)NCC(=O)N(C)[C@@H](Cc1ccccc1)C(=O)NCCO` [DAMGO, reference compound], in series [5], the “Inhibition of forskolin-stimulated cAMP accumulation (in words)” value is reported as “fully inhibit cAMP accumulation” and the maximal response (Emax) came to 86.2 ± 1.8%. In series [7], the “β-arrestin-2 recruitment (in words)” value is “effectively recruit β-arrestin-2”.
Regarding `CC[C@@H]1CN2CCc3c([nH]c4cccc(OC)c34)[C@@H]2C[C@@H]1/C(=C\OC)C(=O)OC` [Mitragynine, mitragynine], the “Inhibition of CYP3A activity (in words)” value in series [1] was “concentration-dependent inhibition”. In series [1] (human, microsomes, pH 7.4), this compound had an IC50 at 2 min of 10 to 100 µM. Also, in series [3], the “Affinity at ƙ-opioid receptor (in words)” value is reported as “moderate affinity” and the Ki came out at 0.482 ± 0.029 µM. Further, in series [4], the IC50 was about 1 µM and the “Inhibition of CYP2D6 activity (in words)” value is listed as “stronger inhibition than speciofoline; also recorded: concentration-dependent inhibition”. In addition, the “Inhibition of forskolin-stimulated cAMP accumulation (in words)” value in series [5] is on record as “partially inhibit cAMP accumulation”. Further, in series [6], the IC50 was in the range of 10 to 100 µM and the “Inhibition of CYP2C9 activity (in words)” value was “concentration-dependent inhibition”. Also, the “β-arrestin-2 recruitment (in words)” value in series [7] was “fail to recruit β-arrestin-2”. Further, the “Affinity at µ-opioid receptor (in words)” value in series [8] was “moderate affinity”. Moreover, the Ki in [9] is over 10000 nM.
`CC[C@@H]1CN2CC[C@]3(C(=O)Nc4cccc(O)c43)[C@H]2C[C@@H]1/C(=C\OC)C(=O)OC` [Speciofoline, speciofoline]: in series [1], the “Inhibition of CYP3A activity (in words)” value was “concentration-dependent inhibition”. Further, in series [3], the “Affinity at ƙ-opioid receptor (in words)” value is “did not exhibit appreciable affinity” and the Ki was over 10 µM. Moreover, in [4], the “Inhibition of CYP2D6 activity (in words)” value was “concentration-dependent inhibition”. Moreover, in [5], the EC50 was found to be 4.24 ± 2.93 µM, the “Inhibition of forskolin-stimulated cAMP accumulation (in words)” value is given as “has no effect” and the Emax was determined as 12.2 ± 3.5%. Also, the “Inhibition of CYP2C9 activity (in words)” value in series [6] is “concentration-dependent inhibition”. Also, the “β-arrestin-2 recruitment (in words)” value in [7] is listed as “fail to recruit β-arrestin-2”. In addition, in series [8], the “Affinity at µ-opioid receptor (in words)” value is on record as “did not exhibit appreciable affinity” and the Ki was over 10 µM. In series [9], the Ki was over 10000 nM and the “Affinity at δ-opioid receptor (in words)” value is listed as “did not exhibit appreciable affinity”.

The term Emax denotes the maximal effect, on the per cent scale that the assay sets. As a reminder, the IC50 is the concentration that inhibits the measured activity by half. Higher therefore signals a need for much substance. The Ki is the dissociation constant of the complex between target and ligand, obtained from inhibition or displacement. As usually defined, the EC50 is the midpoint of the concentration-response curve. Low readings indicate higher potency in that assay, high ones lower potency in that assay.
